Measured values: patent publication US20130252983A1, “ACTIVATING PHOSPHORYLATION SITE ON GLUTAMINASE C” (CORNELL UNIVERSITY, priority 2010, published 2013)

Tests used:
MDA-MB231 cells [1] = assay: Soft-agar colony formation, MDA-MB231; type: cell-based, human; details: 10 μM
Protocol: (§1) FIGS. 2A-G illustrate effects of 968 on the transforming activity of constitutively active Rho GTPases and human breast cancer cells. […] Cells were scored after 14 days and plotted as the percentage of the total number of colonies greater than 50 μm in diameter. Data represent the average of 3 experiments (±s.d.). […] Data represent the average of 3 experiments (±s.d.). […] Data represent the average of 3 experiments (±s.d.). […] After 24 hours at 37° C., the migratory cells were fixed, stained with GIEMSA, and counted. Data represent the average of 3 experiments (±s.d.). […] Data represent the average of 3 experiments (±s.d.). […] Data represent the average of 3 experiments (±s.d.). […] Data represent the average of 3 experiments (±s.d.).

[2] = system: NIH 3T3 cells stably expressing Cdc42(F28L), Rac(F28L), RhoC(F30L); assay: Invasion through growth factor-reduced Matri-gel; type: cell-based, mouse; details: 10 μM, 24 hours
Protocol: as §1

[3] = system: GA activity of SKBR3 cells; assay: GA activity in mitochondrial fractions of treated SKBR3 cells; type: cell-based, human; details: 10 μM, 48 hours
Protocol: 100%=620 moles of glutamine hydrolyzed per minute per mole of enzyme. Data represent the average of 3 experiments (±s.d.). […] Following precipitation of the beads and re-suspension, the samples were analyzed by Western blotting with anti-V5 antibody. […] Data represent the average of 3 experiments (±s.d.). […] Data represent the average of 3 experiments (±s.d.). […] Data represent the average of 3 experiments (±s.d.). FIG. 3E NIH 3T3 cells transiently expressing Dbl were assayed for focus formation in the presence of 10 μM 968 alone or together with 7 mM dimethyl α-ketoglutarate. […] 100%=680 nM glutamine hydrolyzed per minute per 10^5 cells. Data are the average of 3 experiments (±s.d.). […] 100%=750 nM glutamine hydrolyzed per minute per 10^5 cells. Data represent the average of 3 experiments (±s.d.).
FIGS. 4A-E illustrate the role of glutaminase C activity in cellular transformation. […] Data represent the average of 3 experiments (±s.d.). […] Data represent the average of 3 experiments (±s.d.). […] 100% represents the activity measured in untreated Dbl-transformed cells. The data represent the average of 2 experiments. […] 100% represents the activity measured in untreated SKBR3 cells. The data represent the average of 2 experiments. […] Data represent the average of 3 experiments (±s.d.).
FIGS. 11A-E illustrate the effects of different treatments on GA activity. […] The addition of Pi stimulated the GA activity in control 3T3 cells, Dbl-expressing cells, and Cdc42(F28L)-expressing cells by ˜6-fold, 2-fold, and 3-fold, respectively. 100% represents the Pi-stimulated activity measured for Dbl-transformed cells that were not treated with 968. Data is the average of 3 experiments (±s.d.). […] The addition of Pi stimulated the GA activity of HMECs, MDA-MB231 cells, and SKBR3 cells by ˜5-fold, 2-fold, and 1.4-fold, respectively. […] The data are plotted as the percentage of GA activity measured for untreated SKBR3 cells and represent the average of 2 experiments. […] 100% represents the Pi-stimulated activity measured for untreated Dbl-transformed cells. […]

MDA-MB231 cells [4] = assay: Growth to high density and in low serum, MDA-MB231; type: cell-based, human; details: 10 μM
Protocol: as §1

CN(C)c1ccc(C2Nc3ccc4ccccc4c3C3=C2C(=O)CC(C)(C)C3)cc1Br (centres unmarked) [Compound 968, 5-[3-bromo-4-(dimethylamino)phenyl]-2,2-dimethyl-2,3,5,6-tetrahydrobenzo[a]]
colony formation in soft agar (MDA-MB231 cells [1]): inhibits the ability
invasive activity [2]: inhibiting their invasive activity
basal GA activity [3]: sensitive to 968
growth in low serum (MDA-MB231 cells [4]; 1% fetal bovine serum): inhibits their growth
growth to high density (MDA-MB231 cells [4]; 10% fetal bovine serum, 6 days): inhibits their growth
